This passage reports EC50 results from patent US20150274661A1, “INDOL-AMIDE COMPOUNDS AS BETA-AMYLOID INHBITORS” (Hoffmann-La Roche Inc., priority 2012, published 2015).

This assay deals with Aβ42 secretion. The experiment in a line: Cellular γ-secretase assay (inhibition of Aβ42 secretion). The class given is cell-based. The following applies: Homo sapiens, 22 h, human neuroglioma H4 cells overexpressing human APP, 22 hours incubation. In outline: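 H4 neuroglioma cells overexpressing human APP were exposed to compounds (ten-point dilution series, 0.4% DMSO) for 22 h at 37°C. Secreted Aβ42 in supernatant measured by electrochemiluminescence sandwich immunoassay (ruthenylated BAP15 detection, biotinylated 6E10 capture on streptavidin beads). IC50 by nonlinear regression.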

pEC50: −log10 of the molar value.

Regarding `CC(C)C(=O)N1CCC(c2ccc3[nH]c(C(=O)Nc4cc(F)cc(F)c4)cc3c2)C1` (centres unmarked) [Example 13, 5-(1-Isobutyryl-pyrrolidin-3-yl)-1H-indole-2-carboxylic acid (3,5-difluoro-phenyl)-amide], the pEC50 is 6.15.
Take `CC(C)N1CCC(c2ccc3[nH]c(C(=O)Nc4cccc(C(F)(F)F)c4)cc3c2)CC1` [Example 22, 5-(1-Isopropyl-piperidin-4-yl)-1H-indole-2-carboxylic acid (3-trifluoromethyl-phenyl)-amide]: the pEC50 is 5.64.
Take `CC(=O)N1CC[C@@H]([C@H](C)c2ccc3[nH]c(C(=O)Nc4cc(F)cc(F)c4)cc3c2)C1` [Example 122, 5-((S)-1-((S)-1-Acetylpyrrolidin-3-yl)ethyl)-N-(3,5-difluorophenyl)-1H-indole-2-carboxamide]: the pEC50 was 5.68.
Take `CC(C)N1CCC[C@H](c2ccc3[nH]c(C(=O)Nc4cccc(F)c4)cc3c2)C1` [Example 110, 5-((R)-1-Isopropyl-piperidin-3-yl)-1H-indole-2-carboxylic acid (3-fluoro-phenyl)-amide]: the negative logarithm of the EC50 (pEC50) was 6.94.
For the compound `CC(C)N1CCC(c2ccc3[nH]c(C(=O)Nc4cc(F)cc(F)c4)cc3c2)C1` (centres unmarked) [Example 11, 5-(1-Isopropyl-pyrrolidin-3-yl)-1H-indole-2-carboxylic acid (3,5-difluoro-phenyl)-amide], the pEC50 was 6.49.
With `CN1CCCC(c2ccc3[nH]c(C(=O)Nc4cc(F)cc(F)c4)cc3c2)C1` (centres unmarked) [Example 59, 5-(1-Methyl-piperidin-3-yl)-1H-indole-2-carboxylic acid (3,5-difluoro-phenyl)-amide], the pEC50 is 6.74.
For the compound `O=C(Nc1cc(F)cc(F)c1)c1cc2cc(C3CCCN(C(=O)c4ccccc4)C3)ccc2[nH]1` (centres unmarked) [Example 55, 5-(1-Benzoyl-piperidin-3-yl)-1H-indole-2-carboxylic acid (3,5-difluoro-phenyl)-amide], the pEC50 is 6.35. Against the preceding compound, the pEC50 is 0.39 log units lower.
The same measure for `O=C(Nc1cc(F)cc(F)c1)c1cc2cc(C3CCCN(S(=O)(=O)c4ccccc4)C3)ccc2[nH]1` (centres unmarked) [Example 53, 5-(1-Benzenesulfonyl-piperidin-3-yl)-1H-indole-2-carboxylic acid (3,5-difluoro-phenyl)-amide]: 6.41; for `O=C(Nc1cc(F)cc(F)c1)c1cc2cc(C3CCN(CC(F)(F)F)C3)ccc2[nH]1` (centres unmarked) [Example 10, 5-[1-(2,2,2-Trifluoro-ethyl)-pyrrolidin-3-yl]-1H-indole-2-carboxylic acid (3,5-difluoro-phenyl)-amide]: 5.42.
In turn, `O=C(Nc1ccc(F)c(F)c1)c1cc2cc(C3=COCCC3)ccc2[nH]1` [Example 85, 5-(5,6-Dihydro-4H-pyran-3-yl)-1H-indole-2-carboxylic acid (3,4-difluoro-phenyl)-amide] had a pEC50 of 6.35.
Compound `CC(C)C(=O)N1CC[C@@H](c2ccc3[nH]c(C(=O)Nc4cc(F)cc(F)c4)cc3c2)C1` [Example 106, 5-((S)-1-Isobutyryl-pyrrolidin-3-yl)-1H-indole-2-carboxylic acid (3,5-difluoro-phenyl)-amide] had a pEC50 of 6.05.
Next, `O=C(Nc1ccc(F)cc1)c1cc2cc(C3CCN(Cc4ccccc4)CC3)ccc2[nH]1` [Example 38, 5-(1-Benzyl-piperidin-4-yl)-1H-indole-2-carboxylic acid (4-fluoro-phenyl)-amide]: 5.89.
In the case of `N#Cc1cc(F)cc(NC(=O)c2cc3cc(C4CCN(Cc5ccccc5)C4)ccc3[nH]2)c1` (centres unmarked) [Example 5, 5-(1-Benzylpyrrolidin-3-yl)-N-(3-cyano-5-fluorophenyl)-1H-indole-2-carboxamide], the pEC50 was 6.20.
`C=C(CCN1CCCCC1)c1ccc2[nH]c(C(=O)Nc3cc(F)cc(F)c3)cc2c1` [Example 97, N-(3,5-Difluorophenyl)-5-(4-(piperidin-1-yl)but-1-en-2-yl)-1H-indole-2-carboxamide] gave a pEC50 of 5.90. Against the preceding compound, the pEC50 is 0.30 log units lower.
